This note sets out measurements from ChEMBL document CHEMBL3991601, “The target landscape of clinical kinase drugs” (Science, 2017).

Active and inactive are the calls of the source.

Assay [1] addresses Fibroblast growth factor receptor 1 (Homo sapiens, UniProt P11362).
Assay [2] addresses Tyrosine-protein kinase FRK (Homo sapiens, UniProt P42685).
For assay [3], the target named is T1, Mitogen-activated protein kinase kinase kinase 6 (Homo sapiens, UniProt O95382).
T1 sequence (O95382 whole entry): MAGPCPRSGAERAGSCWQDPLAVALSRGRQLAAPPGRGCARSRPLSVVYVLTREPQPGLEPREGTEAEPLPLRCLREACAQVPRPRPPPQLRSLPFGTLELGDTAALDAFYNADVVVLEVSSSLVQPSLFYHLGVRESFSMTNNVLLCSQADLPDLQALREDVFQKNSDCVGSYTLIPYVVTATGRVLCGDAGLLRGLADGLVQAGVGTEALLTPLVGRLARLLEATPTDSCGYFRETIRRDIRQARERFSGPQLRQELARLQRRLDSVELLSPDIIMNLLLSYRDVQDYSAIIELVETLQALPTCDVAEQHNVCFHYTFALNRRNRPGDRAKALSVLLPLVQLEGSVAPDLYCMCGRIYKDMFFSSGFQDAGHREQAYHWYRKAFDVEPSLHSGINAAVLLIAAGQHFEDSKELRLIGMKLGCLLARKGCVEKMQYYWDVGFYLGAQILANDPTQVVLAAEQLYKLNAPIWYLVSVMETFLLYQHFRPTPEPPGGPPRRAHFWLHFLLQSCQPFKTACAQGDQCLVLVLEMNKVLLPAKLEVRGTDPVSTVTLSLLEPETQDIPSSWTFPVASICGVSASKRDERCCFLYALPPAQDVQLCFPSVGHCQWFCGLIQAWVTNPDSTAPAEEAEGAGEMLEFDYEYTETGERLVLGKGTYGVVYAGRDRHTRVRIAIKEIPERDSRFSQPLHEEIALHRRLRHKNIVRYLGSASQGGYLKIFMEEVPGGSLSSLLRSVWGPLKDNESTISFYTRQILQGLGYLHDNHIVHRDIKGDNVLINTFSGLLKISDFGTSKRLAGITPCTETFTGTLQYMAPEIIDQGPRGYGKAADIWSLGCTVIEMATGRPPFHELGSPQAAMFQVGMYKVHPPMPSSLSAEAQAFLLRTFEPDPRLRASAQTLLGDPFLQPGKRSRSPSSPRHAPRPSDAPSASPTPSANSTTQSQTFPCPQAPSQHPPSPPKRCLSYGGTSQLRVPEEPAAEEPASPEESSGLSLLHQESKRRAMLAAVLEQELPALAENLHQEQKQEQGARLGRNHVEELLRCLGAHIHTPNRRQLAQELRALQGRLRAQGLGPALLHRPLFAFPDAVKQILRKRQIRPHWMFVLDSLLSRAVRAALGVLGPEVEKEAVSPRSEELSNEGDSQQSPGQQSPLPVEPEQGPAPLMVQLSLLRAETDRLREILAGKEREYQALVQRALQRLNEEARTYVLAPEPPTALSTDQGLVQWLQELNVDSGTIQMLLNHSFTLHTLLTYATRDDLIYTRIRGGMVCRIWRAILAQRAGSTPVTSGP

The target of assay [4] is Mitogen-activated protein kinase 11 (Homo sapiens, UniProt Q15759).
Assay [5] addresses T2, Pyridoxal kinase (Homo sapiens, UniProt O00764).
T2 sequence (O00764 whole entry): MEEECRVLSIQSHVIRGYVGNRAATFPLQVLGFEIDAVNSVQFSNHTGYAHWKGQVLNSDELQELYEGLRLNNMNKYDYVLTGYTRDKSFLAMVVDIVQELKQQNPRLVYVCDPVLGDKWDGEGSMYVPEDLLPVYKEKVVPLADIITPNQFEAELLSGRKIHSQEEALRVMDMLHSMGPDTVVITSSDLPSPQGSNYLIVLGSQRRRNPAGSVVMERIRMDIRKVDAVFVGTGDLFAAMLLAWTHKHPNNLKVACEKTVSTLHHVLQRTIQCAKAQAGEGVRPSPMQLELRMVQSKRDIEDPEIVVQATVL

In assay [6] the target is T3, Phosphorylase b kinase gamma catalytic chain, liver/testis isoform (Homo sapiens, UniProt P15735).
T3 sequence (P15735 whole entry): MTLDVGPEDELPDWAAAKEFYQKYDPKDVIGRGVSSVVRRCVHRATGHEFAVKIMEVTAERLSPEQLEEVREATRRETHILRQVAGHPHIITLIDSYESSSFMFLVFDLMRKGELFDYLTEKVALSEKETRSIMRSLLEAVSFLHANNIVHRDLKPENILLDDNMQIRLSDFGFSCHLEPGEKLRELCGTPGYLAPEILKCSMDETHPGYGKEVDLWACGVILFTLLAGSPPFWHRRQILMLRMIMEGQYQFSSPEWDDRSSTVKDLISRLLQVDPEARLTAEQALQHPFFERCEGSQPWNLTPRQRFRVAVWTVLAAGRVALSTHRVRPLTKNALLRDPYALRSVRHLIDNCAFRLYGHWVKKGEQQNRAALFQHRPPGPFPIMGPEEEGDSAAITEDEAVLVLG

In assay [7] the target is T4, Glycogen phosphorylase, brain form (Homo sapiens, UniProt P11216).
T4 sequence (P11216 whole entry): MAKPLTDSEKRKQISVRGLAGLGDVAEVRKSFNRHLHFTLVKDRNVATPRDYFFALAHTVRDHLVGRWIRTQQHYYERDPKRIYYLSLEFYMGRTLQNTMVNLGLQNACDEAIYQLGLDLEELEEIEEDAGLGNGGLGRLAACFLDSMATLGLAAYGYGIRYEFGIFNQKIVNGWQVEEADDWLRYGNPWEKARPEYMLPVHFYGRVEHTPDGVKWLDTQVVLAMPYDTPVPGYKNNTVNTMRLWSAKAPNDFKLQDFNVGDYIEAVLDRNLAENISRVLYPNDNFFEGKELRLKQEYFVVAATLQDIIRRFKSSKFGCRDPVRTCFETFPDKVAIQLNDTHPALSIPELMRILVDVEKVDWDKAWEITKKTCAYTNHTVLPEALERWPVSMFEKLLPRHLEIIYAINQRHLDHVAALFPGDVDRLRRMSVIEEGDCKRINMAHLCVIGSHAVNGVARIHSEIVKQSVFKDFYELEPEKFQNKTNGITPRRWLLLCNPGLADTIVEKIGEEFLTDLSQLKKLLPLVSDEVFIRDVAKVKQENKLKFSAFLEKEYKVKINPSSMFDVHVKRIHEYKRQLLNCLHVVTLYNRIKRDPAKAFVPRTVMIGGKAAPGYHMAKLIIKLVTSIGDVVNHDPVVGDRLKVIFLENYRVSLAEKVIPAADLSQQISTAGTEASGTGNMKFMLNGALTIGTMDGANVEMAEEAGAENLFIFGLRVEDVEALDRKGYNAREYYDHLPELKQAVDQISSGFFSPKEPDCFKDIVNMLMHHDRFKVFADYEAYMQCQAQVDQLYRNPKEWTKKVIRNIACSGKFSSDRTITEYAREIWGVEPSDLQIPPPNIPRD

In general, Kd refers to the equilibrium constant for the complex coming apart.
Further: in the data inactive means no Kd found up to 30 µM.

Sequence of Mitogen-activated protein kinase 11 (Q15759 whole entry): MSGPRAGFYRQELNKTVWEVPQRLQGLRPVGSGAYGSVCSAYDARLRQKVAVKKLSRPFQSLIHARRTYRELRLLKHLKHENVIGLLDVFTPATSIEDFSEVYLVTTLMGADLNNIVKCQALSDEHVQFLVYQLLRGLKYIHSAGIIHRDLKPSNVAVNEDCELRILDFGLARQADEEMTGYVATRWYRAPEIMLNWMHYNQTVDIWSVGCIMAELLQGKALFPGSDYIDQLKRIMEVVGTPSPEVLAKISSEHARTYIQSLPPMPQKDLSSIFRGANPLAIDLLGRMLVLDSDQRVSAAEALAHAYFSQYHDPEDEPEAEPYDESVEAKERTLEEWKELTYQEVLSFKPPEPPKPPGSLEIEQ
Sequence of Fibroblast growth factor receptor 1 (P11362 whole entry): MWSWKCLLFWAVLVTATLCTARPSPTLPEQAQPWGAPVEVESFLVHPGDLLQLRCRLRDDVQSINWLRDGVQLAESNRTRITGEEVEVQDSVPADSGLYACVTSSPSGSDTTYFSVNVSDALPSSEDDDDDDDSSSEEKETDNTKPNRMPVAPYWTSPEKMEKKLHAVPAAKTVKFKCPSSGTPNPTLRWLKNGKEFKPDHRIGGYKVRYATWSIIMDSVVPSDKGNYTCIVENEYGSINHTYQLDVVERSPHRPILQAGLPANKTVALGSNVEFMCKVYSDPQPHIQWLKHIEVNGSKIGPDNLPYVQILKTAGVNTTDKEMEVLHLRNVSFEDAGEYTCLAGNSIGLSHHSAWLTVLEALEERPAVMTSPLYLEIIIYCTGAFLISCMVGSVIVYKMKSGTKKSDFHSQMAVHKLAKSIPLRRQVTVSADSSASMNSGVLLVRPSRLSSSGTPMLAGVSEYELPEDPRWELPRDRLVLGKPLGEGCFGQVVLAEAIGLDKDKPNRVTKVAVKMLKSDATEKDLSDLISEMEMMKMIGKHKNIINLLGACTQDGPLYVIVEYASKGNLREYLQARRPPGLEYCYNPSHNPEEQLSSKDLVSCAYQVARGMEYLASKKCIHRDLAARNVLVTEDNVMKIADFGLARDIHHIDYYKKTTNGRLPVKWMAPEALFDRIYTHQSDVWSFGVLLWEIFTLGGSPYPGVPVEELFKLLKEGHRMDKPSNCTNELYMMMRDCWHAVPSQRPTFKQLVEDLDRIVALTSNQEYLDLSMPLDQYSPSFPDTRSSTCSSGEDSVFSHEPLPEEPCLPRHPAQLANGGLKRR
Sequence of Tyrosine-protein kinase FRK (P42685 whole entry): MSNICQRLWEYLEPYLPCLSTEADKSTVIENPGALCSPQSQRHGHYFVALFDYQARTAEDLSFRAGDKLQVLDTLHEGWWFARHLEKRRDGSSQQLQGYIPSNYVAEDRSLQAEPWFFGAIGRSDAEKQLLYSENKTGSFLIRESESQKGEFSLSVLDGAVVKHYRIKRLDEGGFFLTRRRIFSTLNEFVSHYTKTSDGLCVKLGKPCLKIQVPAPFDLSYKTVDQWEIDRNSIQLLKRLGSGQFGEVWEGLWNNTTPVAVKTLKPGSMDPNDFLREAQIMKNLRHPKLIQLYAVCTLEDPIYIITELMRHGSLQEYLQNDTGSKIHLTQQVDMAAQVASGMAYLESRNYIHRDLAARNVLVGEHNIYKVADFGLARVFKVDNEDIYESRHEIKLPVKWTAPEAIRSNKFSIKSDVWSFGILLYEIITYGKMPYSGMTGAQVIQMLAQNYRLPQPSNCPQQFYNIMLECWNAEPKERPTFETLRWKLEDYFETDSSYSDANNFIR

`CO[C@H]1C[C@@H]2CC[C@@H](C)[C@@](O)(O2)C(=O)C(=O)N2CCCC[C@H]2C(=O)O[C@H]([C@H](C)C[C@@H]2CC[C@@H](O)[C@H](OC)C2)CC(=O)[C@H](C)/C=C(\C)[C@@H](O)[C@@H](OC)C(=O)[C@H](C)C[C@H](C)/C=C/C=C/C=C/1C` [SIROLIMUS]: the Kd in assay [1], in assay [2], in assay [3], in assay [4], in assay [5] and in assay [6] was > 30 µM (inactive) throughout. The Kd in assay [7] was > 30 µM (inactive).

For the molecule `CCS(=O)(=O)c1cccc(-c2cc(C(=O)NC3CCN(C)CC3)c(C)c3[nH]c4ncc(C)cc4c23)c1` [TAK-901], the dissociation constant Kd is 1.39 µM (active) in assay [1]; 0.222 µM (active) in assay [2]; > 30 µM (inactive) in assay [3]; > 30 µM (inactive) in assay [4]; > 30 µM (inactive) in assay [5]; > 30 µM (inactive) in assay [6]. Besides, the Kd in assay [7] was > 30 µM (inactive).

In the case of `COc1cc2c(Nc3ccc(Cl)c(Cl)c3F)ncnc2cc1OC[C@@H]1C[C@@H]2CN(C)C[C@@H]2C1` [TESEVATINIB], the Kd in assay [1], in assay [2], in assay [3], in assay [4], in assay [5] and in assay [6] was > 30 µM (inactive) in each case. For the same molecule, in assay [7], the Kd is > 30 µM (inactive).

For `O=C(Cc1ccc(-c2ccc(OCCN3CCOCC3)cc2)cn1)NCc1ccccc1` [TIRBANIBULIN], the Kd in assay [1], in assay [2], in assay [3], in assay [4], in assay [5] and in assay [6] was > 30 µM (inactive) each time. Also, the Kd in assay [7] was > 30 µM (inactive).

`O=C1NC(=O)[C@@H](c2cn3c4c(cccc24)CCC3)[C@@H]1c1c[nH]c2ccccc12` [TIVANTINIB]: the Kd in assay [1], in assay [2], in assay [3], in assay [4], in assay [5] and in assay [6] was > 30 µM (inactive) throughout. In addition, the Kd in assay [7] was > 30 µM (inactive).

Consider `C[C@@H](NC(=O)c1ncnc(N)c1Cl)c1ncc(C(=O)Nc2cc(C(F)(F)F)c(Cl)cn2)s1` [TOVORAFENIB], for which the Kd is > 30 µM (inactive) in assay [1]; 0.172 µM (active) in assay [2]; > 30 µM (inactive) in assay [3]; 0.684 µM (active) in assay [4]; > 30 µM (inactive) in assay [5]; > 30 µM (inactive) in assay [6]. The Kd in assay [7] was > 30 µM (inactive).

Take `Cc1cc(Nc2ncnc3ccc(NC4=NC(C)(C)CO4)cc23)ccc1Oc1ccn2ncnc2c1` [TUCATINIB]: the Kd in assay [1], in assay [2], in assay [3], in assay [4], in assay [5] and in assay [6] was > 30 µM (inactive) in each case. Also, the Kd in assay [7] is > 30 µM (inactive).

For the molecule `Cn1ncc(Cl)c1-c1cc(C(=O)N[C@H](CN)Cc2ccc(F)c(F)c2)oc1Cl` [UPROSERTIB], the Kd in assay [1], in assay [2], in assay [3], in assay [4], in assay [5] and in assay [6] was > 30 µM (inactive) throughout. In assay [7], the Kd is > 30 µM (inactive).

Consider `CC(C)c1cc(CNc2nc(Nc3cc(C4CC4)[nH]n3)cc(N3CCN(C)CC3)n2)on1` [XL-228], for which the Kd in assay [1] is 0.009 µM (active); in assay [2], > 30 µM (inactive); in assay [3], > 30 µM (inactive); in assay [4], > 30 µM (inactive); in assay [5] it was > 30 µM (inactive); in assay [6], 2.41 µM (active). Besides, the Kd in assay [7] is > 30 µM (inactive).

In the case of `C[C@@H](N)c1ccc(C(=O)Nc2ccnc3[nH]ccc23)cc1` [Y-39983], the Kd in assay [1], in assay [2], in assay [3], in assay [4], in assay [5] and in assay [6] was > 30 µM (inactive) in each case. Besides, the Kd in assay [7] is > 30 µM (inactive).

Regarding `CN1C/C=C/CCOc2cccc(c2)-c2ccnc(n2)Nc2cccc(c2)C1` [ZOTIRACICLIB], the Kd in assay [1], in assay [2], in assay [3], in assay [4], in assay [5] and in assay [6] was > 30 µM (inactive) in each case. Also, the Kd in assay [7] was > 30 µM (inactive).
